Article PMC12621200, “Giving an Enzyme Scissors: Serotonin Derivatives as Potent Organocatalytic Switches for DNA Repair Enzyme OGG1” (Journal of Medicinal Chemistry, 2025)

Target: T1, OGG1 (Homo sapiens, UniProt O15527)
T1 construct: made in house
Experiment: Biochemical fluorescence (fluorophore-quencher) assay of OGG1 incision rate, 8-oxoA substrate
Details: for AC50 / AC50 (CI95%): concentration giving 50% of the incision rate of OGG1 with APE1 (2 nM) control; for AC50: read-out: AC50 (CI95%); for AC50 (μM): biochemical assay of virtual screening hits (NCI samples), Table S1; call rule not given here

T1 sequence (O15527 whole entry): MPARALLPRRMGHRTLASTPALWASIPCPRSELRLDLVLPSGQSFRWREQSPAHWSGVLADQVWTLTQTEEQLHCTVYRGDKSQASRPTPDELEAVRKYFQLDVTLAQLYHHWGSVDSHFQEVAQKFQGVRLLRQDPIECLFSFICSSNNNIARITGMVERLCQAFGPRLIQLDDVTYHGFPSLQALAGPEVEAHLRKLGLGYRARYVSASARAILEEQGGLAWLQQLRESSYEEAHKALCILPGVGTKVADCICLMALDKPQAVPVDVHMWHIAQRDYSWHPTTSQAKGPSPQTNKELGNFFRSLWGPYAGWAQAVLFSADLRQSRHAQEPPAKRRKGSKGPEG

| AC50 [µM] | AC50 (CI95%) | OGG1 activation, SAR result in words | Compound | further results |
| --- | --- | --- | --- | --- |
| 4.1 | – | – | NCCc1c(-c2cccnc2)[nH]c2ccccc12 [Compound 1, 2-(2-(Pyridin-3-yl)-1H-indol-3-yl)-ethan-1-amine] | – |
| – | inactive | abolished activity | NC(Cc1c(-c2cccnc2)[nH]c2ccccc12)C(=O)O (stereo not shown) [Compound 6, 2-Amino-3-(2-(pyridin-3-yl)-1H-indol-3-yl)-propanoic Acid] | – |
| – | inactive | complete loss of activity | NCCc1c(-c2ccccc2)[nH]c2ccccc12 [Compound 7, 2-Phenyltryptamine] | – |
| 4 | – | showed potency | NCCc1c(-c2ccccc2)[nH]c2ccc(O)cc12 [Compound 8, 5-Hydroxy-2-phenyltryptamine] | – |
| 1.7 | – | – | c1cncc(-c2cc3ccccc3[nH]2)c1 [Compound 10, 2-(Pyridin-3-yl)-1H-indole] | – |
| 5.7 | – | – | Cc1ccc2[nH]c(-c3cccnc3)cc2c1 [Compound 11, 5-Methyl-2-(pyridin-3-yl)-1H-indole] | – |
| 1.9 | – | – | Fc1ccc2[nH]c(-c3cccnc3)cc2c1 [Compound 12, 5-Fluoro-2-(pyridin-3-yl)-1H-indole] | – |
| 1 | – | – | Brc1ccc2[nH]c(-c3cccnc3)cc2c1 [Compound 13, 5-Bromo-2-(pyridin-3-yl)-1H-indole] | – |
| 13 | – | – | COc1ccc2[nH]c(-c3cccnc3)cc2c1 [Compound 14, 5-Methoxy-2-(pyridin-3-yl)-1H-indole] | – |
| 6 | – | – | Oc1ccc2[nH]c(-c3cccnc3)cc2c1 [Compound 15, 2-(Pyridin-3-yl)-1H-indol-5-ol] | – |
| 1.4 | – | – | Fc1cncc(-c2cc3ccccc3[nH]2)c1 [Compound 16, 2-(5-Fluoropyridin-3-yl)-1H-indole] | – |
| – | inactive | – | Fc1ccc(-c2cc3ccccc3[nH]2)cn1 [Compound 17, 2-(6-Fluoropyridin-3-yl)-1H-indole] | – |
| > 100 | – | – | Nc1cncc(-c2cc3ccccc3[nH]2)c1 [Compound 18] | – |
| 9.3 | – | – | Nc1ccc(-c2cc3ccccc3[nH]2)cn1 [Compound 19, 5-(1H-Indol-2-yl)-pyridin-2-amine] | – |
| 2.8 | – | – | Oc1cncc(-c2cc3ccccc3[nH]2)c1 [Compound 20, 5-(1H-Indol-2-yl)-pyridin-3-ol] | – |
| – | inactive | – | Oc1ccc(-c2cc3ccccc3[nH]2)cn1 [Compound 21, 5-(1H-Indol-2-yl)-pyridin-2-ol] | – |
| – | inactive | – | Clc1ccc(-c2cc3ccccc3[nH]2)cn1 [Compound 22, 2-(6-Chloropyridin-3-yl)-1H-indole] | – |
| 14 | – | – | Cc1ccc(-c2cc3ccccc3[nH]2)cn1 [Compound 23, 2-(6-Methylpyridin-3-yl)-1H-indole] | – |
| 1.4 | – | – | c1ccc2[nH]c(-c3cnc4[nH]ccc4c3)cc2c1 [Compound 26, 5-(1H-Indol-2-yl)-1H-pyrrolo[2,3-b]-pyridine] | – |
| 4.1 | – | – | c1cncc(-c2cc3ccccc3o2)c1 [Compound 28, 3-(Benzofuran-2-yl)-pyridine] | – |
| – | inactive | – | NCCc1c(-c2cccnc2)[nH]c2cc(O)ccc12 [Compound 31, 3-(2-Aminoethyl)-2-(pyridin-3-yl)-1H-indol-6-ol] | – |
| – | inactive | – | NCCc1c(-c2cccnc2)[nH]c2c(O)cccc12 [Compound 32, 3-(2-Aminoethyl)-2-(pyridin-3-yl)-1H-indol-7-ol] | – |

| AC50 [µM] | AC50 (CI95%) | OGG1 activation, SAR result in words | Compound | further results |
| --- | --- | --- | --- | --- |
| – | inactive | lost activity | NCCc1c(-c2ccccn2)[nH]c2ccc(O)cc12 [Compound 42, 3-(2-Aminoethyl)-2-(pyridin-2-yl)-1H-indol-5-ol] | – |
| – | inactive | lost activity | NCCc1c(-c2ccncc2)[nH]c2ccc(O)cc12 [Compound 43, 3-(2-Aminoethyl)-2-(pyridin-4-yl)-1H-indol-5-ol] | – |
| 0.25 | – | slight increase in activity | NCCc1c(-c2cncnc2)[nH]c2ccc(O)cc12 [Compound 44, 3-(2-Aminoethyl)-2-(pyrimidin-5-yl)-1H-indol-5-ol] | – |
| 0.4 | – | slight increase in activity | NCCc1c(-c2cncs2)[nH]c2ccc(O)cc12 [Compound 45, 3-(2-Aminoethyl)-2-(thiazol-5-yl)-1H-indol-5-ol] | – |
| 0.29 | – | – | CNCCc1c(-c2cccnc2)[nH]c2ccc(O)cc12 [Compound 46, 3-(2-(Methylamino)-ethyl)-2-(pyridin-3-yl)-1H-indol-5-ol] | – |
| 8.7 | – | – | OCCc1c(-c2cccnc2)[nH]c2ccc(O)cc12 [Compound 47, 3-(2-Hydroxyethyl)-2-(pyridin-3-yl)-1H-indol-5-ol] | decrease of activity (ethanol derivative versus amine 30): ~10 fold |
| – | inactive | attenuated activity | Cn1c(-c2cccnc2)c(CCN)c2cc(O)ccc21 [Compound 48, 3-(2-Aminoethyl)-1-methyl-2-(pyridin-3-yl)-1H-indol-5-ol] | – |
| – | inactive | – | NCCc1cncc(-c2cc3cc(O)ccc3[nH]2)c1 [Compound 49, 2-(5-(2-Aminoethyl)-pyridin-3-yl)-1H-indol-5-ol] | – |
| 28 | – | – | NCCc1[nH]c2ccccc2c1-c1cccnc1 [Compound 50, 2-(3-(Pyridin-3-yl)-1H-indol-2-yl)-ethan-1-amine] | – |
| – | inactive | – | NCCc1[nH]c2ccc(O)cc2c1-c1cccnc1 [Compound 51, 2-(2-Aminoethyl)-3-(pyridin-3-yl)-1H-indol-5-ol] | – |
| 8.5 | – | some residual activity | NCCc1[nH]c2cc(F)c(O)cc2c1-c1cccnc1 [Compound 52, 2-(2-Aminoethyl)-6-fluoro-3-(pyridin-3-yl)-1H-indol-5-ol] | – |
| 12 | – | some residual activity | NCCc1[nH]c2ccc(O)cc2c1-c1cncnc1 [Compound 53, 2-(2-Aminoethyl)-3-(pyrimidin-5-yl)-1H-indol-5-ol] | – |
| – | – | – | O=C(O)c1cccc(NC(C(=O)c2ccccc2)c2ccccc2)c1 (stereo not shown) [NSC 4232] | AC50 (μM): inactive |
| – | – | – | Cn1c(=O)c2[nH]c(C3CCCCC3)nc2n(C)c1=O [NSC 14383] | AC50 (μM): inactive |
| – | – | – | Cc1ccc(NC(C(=O)c2ccccc2)c2ccccc2)cc1 (stereo not shown) [NSC 26933] | AC50 (μM): inactive |
| – | – | – | Cl.NC(=O)C1CCCN(Cc2c[nH]c3ccccc23)C1 (stereo not shown) [NSC 32474] | AC50 (μM): inactive |
| – | – | – | O=C(c1ccccc1)[C@H](Nc1ccc2ccccc2c1)c1ccccc1 [NSC 34924] | AC50 (μM): inactive |
| – | – | – | O=C1OC(c2c[nH]c3ccccc23)c2ccccc21 (stereo not shown) [NSC 42087] | AC50 (μM): inactive |
| – | – | – | CC(N)Cc1c[nH]c2ccc(Cl)cc12.Cl (stereo not shown) [NSC 50457] | AC50 (μM): inactive |
| – | – | – | FC(F)(F)c1nc(Nc2ccccc2)c2[nH]cnc2n1 [NSC 56385] | AC50 (μM): inactive |
| – | – | – | O=c1cc(Nc2ccc(Cl)c(Cl)c2)[nH]c(=O)[nH]1 [NSC 62573] | AC50 (μM): inactive |
| – | – | – | CC(N)Cc1c[nH]c2ccccc12 (stereo not shown) [NSC 97069] | AC50 (μM): inactive |

| Compound | AC50 [µM] | AC50 (CI95%) | OGG1 activation, SAR result in words | further results |
| --- | --- | --- | --- | --- |
| Cc1ccc2[nH]c(-c3cccnc3)c(CCN)c2c1 [Compound 2, 2-(5-Methyl-2-(pyridin-3-yl)-1H-indol-3-yl)-ethan-1-amine] | – | inactive | – | – |
| COc1ccc2[nH]c(-c3cccnc3)c(CCN)c2c1 [Compound 3, 2-(5-Methoxy-2-(pyridin-3-yl)-1H-indol-3-yl)-ethan-1-amine] | – | inactive | – | – |
| NCCc1c(-c2cccnc2)[nH]c2ccc(Cl)cc12 [Compound 4, 2-(5-Chloro-2-(pyridin-3-yl)-1H-indol-3-yl)-ethan-1-amine] | – | inactive | – | – |
| Cc1cccc2c(CCN)c(-c3cccnc3)[nH]c12 [Compound 5, 2-(7-Methyl-2-(pyridin-3-yl)-1H-indol-3-yl)-ethan-1-amine] | – | inactive | – | – |
| NCCc1c(-c2ccccc2)[nH]c2cc(F)ccc12 [Compound 9, 6-Fluoro-2-phenyltryptamine] | – | inactive | – | – |
| c1ccc2[nH]c(-c3ccncc3)cc2c1 [Compound 24, (2-Pyridin-4-yl)-1H-indole] | – | inactive | not tolerated | – |
| c1ccc2[nH]c(-c3cncnc3)cc2c1 [Compound 25, 2-(Pyrimidin-5-yl)-1H-indole] | – | inactive | not tolerated | – |
| c1ccc2ncc(-c3cc4ccccc4[nH]3)cc2c1 [Compound 27, 3-(1H-Indol-2-yl)-quinoline] | – | inactive | not tolerated | – |
| NCCc1c(-c2cccnc2)[nH]c2cccc(O)c12 [Compound 33, 3-(2-Aminoethyl)-2-(pyridin-3-yl)-1H-indol-4-ol] | – | inactive | – | – |
| NCCc1c(-c2cccnc2)[nH]c2ccc(F)cc12 [Compound 34, 2-(5-Fluoro-2-(pyridin-3-yl)-1H-indol-3-yl)-ethan-1-amine] | 6.4 | – | tolerated | – |
| NCCc1c(-c2cccnc2)[nH]c2cc(F)ccc12 [Compound 35, 2-(6-Fluoro-2-(pyridin-3-yl)-1H-indol-3-yl)-ethan-1-amine] | 5.3 | – | tolerated | – |
| NCCc1c(-c2cccnc2)[nH]c2ccc(N)cc12 [Compound 36, 3-(2-Aminoethyl)-2-(pyridin-3-yl)-1H-indol-5-amine] | – | inactive | not tolerated | – |
| NCCc1c(-c2cccnc2)[nH]c2ccc(C(=O)O)cc12 [Compound 37, 3-(2-Aminoethyl)-2-(pyridin-3-yl)-1H-indole-5-carboxylic Acid] | – | inactive | not tolerated | – |
| NCc1c(-c2cccnc2)[nH]c2ccc(O)cc12 [Compound 39, 3-(Aminomethyl)-2-(pyridin-3-yl)-1H-indol-5-ol] | – | inactive | not tolerated | – |
| NCCCc1c(-c2cccnc2)[nH]c2ccc(O)cc12 [Compound 40, 3-(3-Aminopropyl)-2-(pyridin-3-yl)-1H-indol-5-ol] | – | inactive | not tolerated | – |
